This passage reports inhibition and IC50 results from ChEMBL document CHEMBL1137094, “Facile incorporation of urea pseudopeptides into protease substrate analogue inhibitors” (Bioorg Med Chem Lett, 2004).

The target of test [1] is Human immunodeficiency virus type 1 protease (Human immunodeficiency virus 1) (UniProt Q72874). Kind of test: Percent inhibition against human immunodeficiency virus protease in fluorescence assay. The following applies: concentration not given here.
Test [2] concerns the target T1, Angiotensin-converting enzyme (Sus scrofa, UniProt Q4ACT8).
T1 sequence (Q4ACT8 whole entry): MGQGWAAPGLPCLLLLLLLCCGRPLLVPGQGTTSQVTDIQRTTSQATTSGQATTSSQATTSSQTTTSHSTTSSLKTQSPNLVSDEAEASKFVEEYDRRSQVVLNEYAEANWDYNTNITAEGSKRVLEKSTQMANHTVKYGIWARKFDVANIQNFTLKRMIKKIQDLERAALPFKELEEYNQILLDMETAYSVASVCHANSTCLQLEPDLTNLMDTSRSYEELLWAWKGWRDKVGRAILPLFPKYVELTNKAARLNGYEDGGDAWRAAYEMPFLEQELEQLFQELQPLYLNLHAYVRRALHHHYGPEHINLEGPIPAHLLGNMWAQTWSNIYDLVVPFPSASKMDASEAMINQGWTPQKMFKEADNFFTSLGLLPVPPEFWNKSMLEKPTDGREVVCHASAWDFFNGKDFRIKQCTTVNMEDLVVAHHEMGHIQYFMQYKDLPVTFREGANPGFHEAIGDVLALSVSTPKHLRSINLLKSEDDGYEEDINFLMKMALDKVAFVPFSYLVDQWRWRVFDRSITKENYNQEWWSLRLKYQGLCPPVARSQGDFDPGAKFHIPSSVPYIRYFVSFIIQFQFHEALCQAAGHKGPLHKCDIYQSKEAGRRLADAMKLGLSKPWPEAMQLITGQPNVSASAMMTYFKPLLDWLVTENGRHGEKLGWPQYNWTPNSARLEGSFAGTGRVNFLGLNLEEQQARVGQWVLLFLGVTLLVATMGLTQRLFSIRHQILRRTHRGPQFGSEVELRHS
The test can be described thus: Inhibitory concentration against porcine kidney angiotensin converting enzyme cleavage of hippuryl-histidyl-leucine (HHL).

For test [3], the target named is Human immunodeficiency virus type 1 protease (Human immunodeficiency virus 1, UniProt Q72874). The test can be described thus: Inhibitory concentration against human immunodeficiency virus protease in fluorescence assay.

Structures are written as SMILES.

`COC(=O)[C@@H](NC(=O)[C@@H](NC(=O)C(Cc1ccccc1)NC(=O)N[C@H](Cc1ccccc1)NC(=O)[C@H](C)NC(=O)[C@H](C)NC(=O)OCc1ccccc1)C(C)C)C(C)C` (stereo partly drawn): the inhibition in test [1] is 35%.

For the molecule `CC(C)C[C@H](NC(=O)[C@H](Cc1ccccc1)NC(=O)NCNC(=O)CNC(=O)[C@@H](N)Cc1ccc(O)cc1)C(=O)O`, in test [2], 880 µM corresponded to half-maximal inhibition (IC50).

As for `COC(=O)[C@@H](NC(=O)[C@@H](NC(=O)[C@H](Cc1ccccc1)NC(=O)N[C@H](Cc1ccccc1)NC(=O)[C@H](C)NC(=O)[C@H](C)N)C(C)C)C(C)C`, the IC50 in test [3] was found to be 32.4 µM.
